Experimental findings from the NIST ThermoML archive (doi:10.1016/j.fluid.2018.07.032) are described below.

The conditions of this data set: 1825 kPa, Liquid, Pendant drop shape.

± gives the expanded uncertainty stated by the source.

As to `CCCCCCCCCCCC` [dodecane] + O, the interfacial tension was determined as 40 ± 0.2 mN/m (383 K), 36.5 ± 0.2 mN/m (403 K), 32.9 ± 0.2 mN/m (423 K) and 28.5 ± 0.2 mN/m (443 K).

In the case of `Cc1ccccc1` [toluene] + O, the interfacial tension is, setting by setting: (383 K) 28.6 ± 0.1 mN/m; (403 K) 26.4 ± 0.1 mN/m; (423 K) 23.8 ± 0.2 mN/m; (443 K) 20.2 ± 0.2 mN/m.
